The record followed here is patent US9861625B2, “Methods and compositions for treating cancer through inhibition of PI3K” (Duke University, priority 2014, dated 2018).

Each structure is given as a SMILES string. Like-named read-outs stand apart in the source and are kept apart here.

Format in all cases: cell-based
Experiment [1] relates to Sixty cell lines representing blood cancer histologies. In words: Sensitivity to PI3K inhibition in sixty cancer cell lines (MTT). The conditions noted are these: BKM120 and BEZ235 in all 60 cell lines; BGT226 in 31 cell lines; read-out: observed IC50s, range over the cell lines. An excerpt: (§1) A total of 60 cell lines representative of different cancer types were obtained from the ATCC and grown and maintained in accordance with the provided guidelines. The cell lines represented the following distinct histologies: mantle cell lymphoma (5 lines: JVM13, Rec1, Mino, JVM2, Jeko); germinal center B-cell derived (“GCB”) DLBCL (19 lines: Farage, BJAB, Ly1, Ly2, Ly7, Ly8, Ly19, HBL2, HT, Karpas422, Pfeiffer, RCK8, RL, Sci-1, Ski, SUDHL4, SUDHL7, Toledo, WSU-NHL); primary mediastinal B-cell lymphoma (“PMBL”) (3 lines: K1106, MEDB1, U2940); Burkitt lymphoma (11 lines: Daudi, CA46, EB1, EB2, EB3, Jijoye, Raji, Ramos, Namwala, BL2, BL41); Hodgkin lymphoma (3 lines: RMPI6666, L1236, L428); activated B-cell derived (“ABC”) DLBCL (6 lines: Ly3, HBL1, TMD8, Ly10, Riva, U2932); multiple myeloma (6 lines: U266, SKMM1, RPMI8226, KMS12, IM9, H929); acute myelogenous leukemia (“AML”) (2 lines: U937, KG1); acute lymphoblastic leukemia (“ALL”) (2 lines: Reh, SR); and T-cell lymphoma (3 lines: Molt4, RPMI8402, Jurkat). The cell lines were tested within six months after resuscitation.
The 3-(4,5-dimethylthiazol-2-yl)-2,5-diphenyltetrazolium bromide (MTT) cell viability assay was used to determine cell viability in response to drug treatment. Five replicates per concentration tested were carried out in serial dilutions with a total of ten concentrations with a 50% reduction in drug concentration per dilution for each plate. A total of 15 μl of MTT reagent was added to each drug-treated well and incubated for three hours in 37° C. Detergent was added to each drug-treated well and incubated overnight at room temperature without exposure to light. Absorbance was measured at 570 nm using a plate reader from Tecan Group. The IC50 concentration was determined using the publicly available ED50 plus v1.0 software program. […]

The test system of another experiment is Reh. The experiment in a line: MTT cell viability assay. Particulars: Homo sapiens, ALL, RPMI 10% FBS.
Description: as §1
(§2) The 3-(4,5-dimethylthiazol-2-yl)-2,5-diphenyltetrazolium bromide (MTT) cell viability assay was used to determine cell viability in response to drug treatment. Five replicates per concentration tested were carried out in serial dilutions with a total of ten concentrations with a 50% reduction in drug concentration per dilution for each plate. A total of 15 μl of MTT reagent was added to each drug-treated well and incubated for three hours in 37° C. Detergent was added to each drug-treated well and incubated overnight at room temperature without exposure to light. Absorbance was measured at 570 nm using a plate reader from Tecan Group. The IC50 concentration was determined using the publicly available ED50 plus v1.0 software program.

The next experiment deals with Jijoye. The experiment in a line: MTT cell viability assay. Particulars: Burkitt Lymphoma, RPMI 10% FBS.
Description: as §1, §2
(In general: Tetrazolium assays rely on reduction of a dye to a coloured formazan, in cell work by metabolically active cells.)

The next experiment relates to SUDHL4. The experiment in a line: MTT cell viability assay. Particulars: Homo sapiens, SU-DHL-4; SUDHL4, GCB DLBCL, RPMI 15% FBS.
Description: as §1, §2

For another experiment, the system named is Rec1. In words: MTT cell viability assay. The conditions noted are these: Homo sapiens; Rec1, MantleCellLymphoma, RPMI 10% FBS.
Description: as §1, §2

A further experiment relates to BJAB. The experiment in a line: MTT cell viability assay. The conditions noted are these: Homo sapiens.
Description: as §1, §2

In the next experiment the test system is LY19. The experiment in a line: MTT cell viability assay. Particulars: LY19, GCB DLBCL, OCI.
Description: as §1, §2

The next experiment concerns Karpas422. The experiment in a line: MTT cell viability assay. Particulars: Homo sapiens, KARPAS-422; Karpas422, GCB DLBCL, RPMI 10% FBS.
Description: as §1, §2

The subject of another experiment is LY7. The experiment in a line: MTT cell viability assay. The conditions noted are these: LY7, GCB DLBCL, OCI.
Description: as §1, §2

In the next experiment the test system is H929. The experiment in a line: MTT cell viability assay. Particulars: Homo sapiens, NCI-H929; H929, Multiple Myeloma, RPMI 10% FBS.
Description: as §1, §2

The subject of another experiment is U937. The experiment in a line: MTT cell viability assay. The conditions noted are these: Homo sapiens, U-937; U937, AML, RPMI 10% FBS.
Description: as §1, §2

In the next experiment the test system is RL. In words: MTT cell viability assay. Particulars: Homo sapiens, GCB DLBCL, RPMI 10% FBS.
Description: as §1, §2

Another experiment deals with EB2. The experiment in a line: MTT cell viability assay. The conditions noted are these: Homo sapiens; EB2, Burkitt Lymphoma, RPMI 10% FBS.
Description: as §1, §2

The subject of a further experiment is IM9. In words: MTT cell viability assay. The conditions noted are these: Homo sapiens, IM-9; IM9, Multiple Myeloma, RPMI 10% FBS.
Description: as §1, §2

For a further experiment, the system named is LY3. The experiment in a line: MTT cell viability assay. The conditions noted are these: LY3, ABC DLBCL, OCI.
Description: as §1, §2

A further experiment deals with EB1. The experiment in a line: MTT cell viability assay. Particulars: EB1, Burkitt Lymphoma, RPMI 10% FBS.
Description: as §1, §2

Another experiment concerns Pfeiffer. The experiment in a line: MTT cell viability assay. The conditions noted are these: Homo sapiens, GCB DLBCL, RPMI 10% FBS.
Description: as §1, §2

The next experiment relates to CA46. The experiment in a line: MTT cell viability assay. The conditions noted are these: Homo sapiens; CA46, Burkitt Lymphoma, RPMI 10% FBS.
Description: as §1, §2

Another experiment has as its system Farage. The experiment in a line: MTT cell viability assay. The conditions noted are these: GCB DLBCL, RPMI 10% FBS.
Description: as §1, §2

The next experiment concerns MEDB1. The experiment in a line: MTT cell viability assay. Particulars: MEDB1, PMBL, RPMI 10% FBS.
Description: as §1, §2

Where [2] appears, read: BJAB, GCB DLBCL, RPMI 10% FBS, read-out: IC50.

`Nc1cc(C(F)(F)F)c(-c2cc(N3CCOCC3)nc(N3CCOCC3)n2)cn1` [BKM120]: the IC50 in experiment [1] is 200 to 7800 nM; in the experiment on Reh it was 1020 nM; in the experiment on Jijoye it was 2740 nM; in the experiment on SUDHL4, 1110 nM; with Rec1 it was 776 nM; in the experiment with BJAB (setting [2]), 1470 nM. The IC50 with LY19 is 1890 nM; in the experiment on Karpas422, 2080 nM; in the experiment with LY7, 2550 nM; with H929, 1200 nM; in the experiment with U937 it was 895 nM; with RL, 2600 nM. In addition, the IC50 in the experiment with EB2 is 1070 nM; in the experiment with IM9, 575 nM; in the experiment on LY3, 893 nM; in the experiment on EB1 it was 1070 nM; with Pfeiffer, 1040 nM; with CA46, 729 nM. In addition, the IC50 with Farage is 752 nM; in the experiment with MEDB1, 7790 nM.

For the molecule `COc1ccc(-c2ccc3ncc4c(c3c2)n(-c2ccc(N3CCNCC3)c(C(F)(F)F)c2)c(=O)n4C)cn1` [BGT226], the IC50 was 3 to 200 nM in experiment [1]; 13.4 nM in the experiment on Reh; 13.1 nM with Jijoye; 51.3 nM in the experiment with SUDHL4; 35.9 nM with Rec1; 8.5 nM in the experiment with BJAB (setting [2]). Besides, the IC50 turned out to be 33.3 nM with LY19; 85.3 nM in the experiment with Karpas422; 20.4 nM in the experiment with LY7; 3.6 nM in the experiment with H929; 11.2 nM in the experiment on U937; 64.1 nM with RL. Also, the IC50 in the experiment with EB2 is 199 nM; in the experiment with IM9 it was 201 nM; in the experiment with LY3, 20.4 nM; in the experiment on EB1, 71.6 nM; in the experiment on Pfeiffer it was 20.8 nM; in the experiment with CA46, 27.6 nM. Also, the values for the IC50 in the experiment on Farage and with MEDB1 were 162 nM and 49.7 nM, respectively.

Regarding `Cn1c(=O)n(-c2ccc(C(C)(C)C#N)cc2)c2c3cc(-c4cnc5ccccc5c4)ccc3ncc21` [BEZ235], the IC50 in [1] is 10 to 9000 nM; with Reh it was 484 nM; in the experiment on Jijoye, 140 nM; in the experiment with SUDHL4, 60.8 nM; in the experiment on Rec1, 82.3 nM; in the experiment with BJAB (BJAB cells, read-out: IC50 concentration), 26.9 nM. Moreover, the IC50 in the experiment with BJAB (BJAB cells, read-out: observed IC50) turned out to be 26.9 nM; in the experiment on BJAB (setting [2]) it was 26.9 nM; with LY19, 224 nM; with Karpas422, 22 nM; with LY7 it was 257 nM; in the experiment on H929, 113 nM. In addition, the IC50 was 15 nM in the experiment on U937; 26 nM in the experiment on RL; 70.2 nM in the experiment on EB2; 4500 nM in the experiment with IM9; 80 nM in the experiment on LY3; 22.6 nM in the experiment with EB1. Besides, the IC50 with Pfeiffer came to 17.1 nM; in the experiment on CA46 it was 28.4 nM; in the experiment on Farage it was 509 nM; with MEDB1 it was 1830 nM.
